# Conditions: acidic group
row,SMILES,pKa
1,[O-]c1ncc2[nH]cnc2n1,11.9
2,COc1ccc(CC(=O)O)cc1,4.36
3,Oc1ccc(OCc2ccccc2)cc1,10.5
4,C=CC[NH+](CC=C)CCCNC(=O)/C=N/O,8.14
5,Nc1c[nH+]c(S)nc1N,2.96
6,COc1c(C)cccc1C(=O)O,3.84
7,O=C([O-])/C=C/C(=O)CC(=O)CC(=O)[O-],8.4
8,O=C(O)[C@@H]1O[C@H](Oc2ccc3oc4cccc(O)c4c(=O)c3c2)[C@@H](O)[C@H](O)[C@H]1O,3.94
9,O=C(O)c1ccc(F)c([N+](=O)[O-])c1,3.37
10,Oc1cncc[nH+]1,-0.1
11,Cc1csc(C(=O)O)c1,3.66
12,C[N+]1(CCCCCC(=O)O)CCCCC1,4.44
13,C=C(C)[C@H]1C[NH2+][C@H](C(=O)O)[C@H]1CC(N)=O,2.01
14,S=C(Nc1ccccc1)c1ccccc1,10.9
15,CC(C)CC([NH3+])C(=O)O (configuration not stated),2.46
16,Oc1cccc2c1-c1cccc(O)c1-2,8.35
17,O=C(c1ccccc1)c1ccc(O)c(O)c1,7.74
18,CC(I)[N+](=O)[O-] (configuration not stated),7.24
19,Cc1cc(Cl)ccc1C(=O)O,3.75
20,N#CC(Br)C#N,5
21,Fc1ccc(S)cc1,6.35
22,O=C([O-])c1cccc(O)c1,9.81
23,CCC1(CC)OC(=O)NC1=O,5.7
24,CCCCCc1c(-c2ccccc2)n[nH]c1O,8.4
25,O=C(O)c1cccc(/C=C/[N+](=O)[O-])c1,3.9
26,Cc1ccc(Cl)cc1C(=O)O,3.63

row,SMILES,pKa
1,Oc1ccccc1-c1nnn[nH]1,4.36
2,O=C(O)[C@H]1C[C@@H]1c1cccc(Cl)c1,4.51
3,Oc1ccc2cccnc2c1,8.85
4,O=[N+]([O-])c1ccc2c(c1)C([P+](c1ccccc1)(c1ccccc1)c1ccccc1)c1ccccc1-2.[Br-] (configuration not stated),5.36
5,NC(=O)c1c(CC(=O)O)n[nH]c1N,3.5
6,[NH3+]CC/C=C/C(=O)O,3.83
7,COc1nc(N)c2[nH]cnc2n1,10
8,O=C1CCC(=O)C1=O,8.48
9,O/C(=C/c1ccncc1)c1ccccc1,10.3
10,Cc1ccc(C(=O)C(=O)O)cc1C,1.36
11,C=C1CC1C[C@H]([NH3+])C(=O)O (some centres not stated),2.4
12,CCCC(=O)NO,9.48
13,OCCS,9.47
14,CCc1c(-c2ccccc2)n[nH]c1O,7.8
15,Oc1cc(Cl)c(Cl)c(Cl)c1,7.7
16,C[NH+](C)CCc1nnn[nH]1,4.59
17,Cc1n[nH]c2ncnc(N)c12,11.1
18,CNCCc1ccc(O)c(O)c1,10.6
19,CC(C)(C(=O)O)C(C#N)c1ccccc1 (configuration not stated),3.95
20,c1cncc(-c2nc3ccccc3[nH]2)c1,11.2
21,[O-]/N=C1\CCCC\C1=N/O,12.6
22,SCC[NH2+]Cc1ccccc1,7.86
23,Oc1ccc2c(cnc3ccccc32)c1,8.68
24,CC(=O)N1CCC[C@H]1C(=O)O,3.21
25,Oc1cccc2cnccc12,8.45
26,CN(C)c1cccc2c(S(=O)(=O)NCC[NH+](C)C)cccc12,8.33

row,SMILES,pKa
1,O=C(O)c1cc[nH]c1,4.98
2,O=C(O)c1ccc(CO)cc1,4.18
3,C[N+]1(CC(=O)O)CCCCC1,2.01
4,SCc1ncc[nH]1,9.26
5,O=C(O)C#CSc1ccccc1,2.11
6,Oc1ccc2ccncc2c1,8.88
7,Nc1cc([O-])ccc1O,11.2
8,CCC(C)NC(C#N)=C(C#N)C#N (configuration not stated),6.35
9,NCC(N)=O,8.05
10,Cn1cccc1C(=O)O,4.51
11,OC(O)=C1SCc2ccccc21,5.32
12,CNC(=O)c1ncnc2nc[nH]c12,8.9
13,Cc1cccc(C(=O)O)c1I,2.92
14,O=C([O-])C1(C(=O)O)CC1,7.31
15,O=C(/C(=N/O)c1ccccc1)c1ccccc1,8.8
16,[O-]c1ccc(O)n[nH+]1,5.73
17,C[C@H]1CCCC[C@@H]1C(=O)O,4.74
18,Nc1nc(O)[nH+]c2nc[nH]c12,4.51
19,O=C(O)C1(O)CCCCC1,4.18
20,O/N=C/c1ccc(Cl)cc1,10.5
21,Cc1cc(C[NH+](C)C)c(O)c(C[NH+](C)C)c1,6.45
22,CC(C)C1CC(CC(=O)O)[NH2+]C1C(=O)[O-] (configuration not stated),4
23,CCOc1ccc(C)c(C(=O)O)c1,3.86
24,Oc1c(Cl)cc(Cl)cc1C[NH+]1CCCCC1,5.97

# Same assay, conditions: basic group
row,SMILES,pKa
1,[O-]c1ncc2[nH]cnc2n1,8.43
2,CCN(CCC#N)CCC#N,4.55
3,COC(=O)C1=CN2CCC1CC2,7.17
4,CCc1cc(Cl)n(C)c2nc3ccccc3c1-2,7.46
5,NC(Cc1ccccc1)C(=O)[O-] (configuration not stated),9.17
6,Cc1cnc2c(cc(C)c3c(C)ccnc32)c1C,6.45
7,CNc1cccc(C)c1,4.94
8,CN1CC[C@]23c4c5ccc(OCc6ccccc6)c4O[C@H]2[C@@H](O)C=C[C@H]3[C@H]1C5,8.07
9,CCN(CC)CCNc1nc(C)cc(Nc2ccc(Cl)cc2)n1,9.6
10,CCC(C)(C)N(C)C(C)C,11.2
11,Cc1cc([O-])nc2c1CCO2,8.44
12,CN(C)CCC/N=C(\c1ccccc1)c1ccc2ccccc2c1,9.2
13,CCCCCSC(=N)c1ccccc1,8.5
14,CC1(C)CCC(C2CCC(C)(C)N2)N1 (configuration not stated),10.3
15,Cc1[nH]cnc1CSCCNC(=[NH2+])NCCCc1c[nH]c[nH+]1,6.41
16,CC(=O)n1ccnc1Cc1[nH]cc[nH+]1,1.93
17,CCCCc1cccnn1,3.49
18,c1coc(C2CN3CCC2CC3)c1 (configuration not stated),10
19,Cn1/c(=N\N)sc2ccccc21,6.1
20,Cc1nc(C)c(C)[nH+]c1C,-2.73
21,CCCCCCCCCCCCCCCCN(CCCCCCCCCCCCCCCC)C(=O)[C@H](C)NC(=O)[C@H](Cc1c[nH]cn1)NC(=O)CCCCC[N+](C)(C)C.[Br-],7.2
22,CNNC1CC[NH+](C(C)C)CC1,6.2
23,CCNCCN,10.5
24,O=C(Cc1ccc2ccc3cccnc3c2n1)c1ccccc1,4.4
25,CN1CCN(C)c2cccc3cccc1c23,4.62
26,c1ccc2c(c1)CCN2,5.49

row,SMILES,pKa
1,CCN(CC#N)CC#N,3.98
2,Cc1ccccc1/C(=N\CCC[NH+](C)C)c1ccccc1Cl,3.37
3,CN[C@H]1C[C@@H]1[NH2+]C,5.65
4,Oc1ccc2cccnc2c1,5.48
5,c1cc([C@@H]2CCCN2)nc([C@@H]2CCCN2)c1,10.1
6,Cc1cc(-c2ccccc2)nnc1NCCN1CCOCC1,7.05
7,Cc1ccc(N)cc1[N+](=O)[O-],3
8,c1ccc(-c2ccc[nH+]c2)nc1,1.52
9,C[C@@H]1CC[C@@H]2CC[C@H](C)N21,10.2
10,NCCC[NH3+],8.77
11,COc1nc(N)c2[nH]cnc2n1,3.7
12,Nc1ccccc1-c1nc2ccccc2s1,2.6
13,[NH3+]Cc1ccccn1,3.1
14,CC(c1ccccc1)N1CC(O[Si](C)(C)C)C1 (configuration not stated),7.82
15,c1ccc2c(c1)CCC2N(c1ccc2ccccc2c1)C1CCc2ccccc21 (configuration not stated),0.25
16,N/C(=N\O)c1ccccc1N,4.5
17,CC[NH+](CC)CCNc1nc(N)nc(C)c1C,7.9
18,CCCCOC(=N)c1ccccc1,6.09
19,O/C(=C/c1ccncc1)c1ccccc1,6.21
20,OCc1ccccn1,4.66
21,C/C(N)=N/O,5.9
22,c1cncc(-c2ccc[nH]2)c1,4.32
23,NNC(=O)[C@H](Cc1c[nH]cn1)NC(=O)OCc1ccccc1,6.1
24,CC1C(=O)OC(C(C)(C)C)C1=O (configuration not stated),4.84
25,C[NH+](C)CCc1nnn[nH]1,-2.8
26,CN(C)c1cccc2cccc([NH+](C)C)c12,-9

row,SMILES,pKa
1,Cc1n[nH]c2ncnc(N)c12,4.61
2,Nc1ccccc1NC(=O)c1ccc([N+](=O)[O-])cc1,3.01
3,C[NH+](C)CCNCC[NH+](C)C,3.84
4,CNCCc1ccc(O)c(O)c1,8.84
5,C=CCN(CC(C)O)CC(C)O (configuration not stated),8.2
6,CCc1nc2ccccc2[nH]1,6.2
7,Cc1c2ccncc2cc2c1[nH]c1ccncc12,7.5
8,c1cncc(-c2nc3ccccc3[nH]2)c1,4.53
9,CCCCC(N)C(=O)[O-] (configuration not stated),9.89
10,CN(CCCN)CCC[NH3+],9.27
11,c1ccc2[nH+]c(-c3ccncc3)[nH]c2c1,4.47
12,CC1CC[C@H](O)[C@@H](N)C1 (some centres not stated),9.5
13,Oc1ccc2c(cnc3ccccc32)c1,4.39
14,Cc1cccc(N(C)C)c1,5.32
15,Oc1cccc2cnccc12,5.4
16,CN(C)c1cccc2c(S(=O)(=O)NCC[NH+](C)C)cccc12,3.57
17,C[NH+](C)CCNc1ccnc2cccc([N+](=O)[O-])c12,5.77
18,C[C@@H]1CN[C@@H](C)CN1,9.76
19,C#CCCCCCN,10.6
20,SCc1ncc[nH]1,6.37
21,Oc1ccc2ccncc2c1,5.7
22,CC(C)(C)CC(C)(C)N,10.8
23,Nc1cnc2c(N)nc(N)nc2n1,6.3
24,Nc1ccc2ncncc2c1,3.29
25,C(=C\c1ccncc1)/c1ccccc1,5.97
26,CCCSC(=O)CCCc1c[nH]cn1,7.55

row,SMILES,pKa
1,CCN(CC)CCCC(C)Nc1cc(C)nc2cc(Cl)ccc12 (configuration not stated),10.2
2,CCC(O)CN(CC)CC(C)O (configuration not stated),9.2
3,CN(C)CC(P(=O)([O-])[O-])P(=O)([O-])[O-],8.98
4,C1CNCCSCCN1,10
5,Clc1cccnc1,2.77
6,Cc1[nH]cnc1CSCCNC(=[NH2+])NCCCc1c[nH]cn1,7.26
7,CN1C[C@H](C(=O)[O-])C[C@@]2(O)c3cccc4[nH]cc(c34)C[C@@H]12,8.33
8,OCC1CC2CCN1CC2 (configuration not stated),10.8
9,COc1ccc2c(c1OC(C)=O)[C@]13CCN(C)[C@H](C2)[C@@H]1CC[C@H](OC)C3,9.31
10,COc1cc2c(cc1O)CCN1Cc3c(ccc(OC)c3OC)C[C@@H]21,9.55
11,CCN(C)N(CC)CC,7.3
12,CCCC(=O)C1(c2cccc(O)c2)CCN(C)CC1,8.62
13,CNc1cnccc1N,9.14
14,[Se-]c1ncnc2nc[nH]c12,7.33
15,CCCNC(=O)[C@H](Cc1c[nH]cn1)NC(=O)c1cccc(CNCCN)n1,9.3
16,CCCCCCCCCCCCN(CCO)CC(O)CC (configuration not stated),6.4
17,Nc1cccnc1N,6.84
18,Nc1ccc2nccnc2c1,2.95
19,CN(C)CCCN(C)C(=O)/C=N/[O-],9.83
20,OCc1ccc(-c2nccc3c2[nH]c2ccccc23)o1,5.7
21,CCN(CC)CC(=O)Nc1ccccc1C,7.95
22,Cc1cnn(C)c1C,3.58
23,COC(=O)C(C)(C)c1c[nH]c(CO)n1,6.18

# From the pKa sets of Baltruschat and Czodrowski (2020)
